Source: paper PMC11796354, “Autoinducer-2 enhances the defense of Vibrio furnissii against oxidative stress and DNA damage by modulation of c-di-GMP signaling via a two-component system” (mBio, 2025)

Biological target: AsrK (vfu_B00258)
Test: ITC in borate-depleted buffer; also inhibits autokinase activity of purified full-length AsrK
Type: binding, Vibrio furnissii

## CC(=O)C(=O)[C@@H](O)CO [DPD, 4,5-dihydroxy-2,3-pentanedione]
  Kd: 38 ± 4 nM
